Among the data in patent US20240131168A1, “NAPHTHALENE RING-CONTAINING COMPOUND, PHARMACEUTICAL COMPOSITION CONTAINING SAME, AND USE THEREOF” (JIANGSU YAHONG MEDITECH CO., LTD., priority 2021, published 2024) are inhibition and IC50 values, retold here.

Type in all cases: cell-based
One test relates to TamR-MCF-7. The experiment in a line: CellTiter-Glo cell proliferation inhibition, TamR-MCF-7. The note with it: 144 h; TamR-MCF-7 (CTG), 6 days, starting concentration 10 μM; read-out: IH % max (maximum inhibition percentage). An excerpt:
(§1) 1. Cell line • (1) Breast cancer cell lines and their culture media: • MCF-7 (ATCC; Cat. No.: HTB-22), a Luminal A breast cancer cell; • TamR-MCF-7 (ATCC; Cat. No.: CRL-3435), a breast cancer cell; • MCF-7 ER^D538G: a Luminal A breast cancer cell obtained by constructing MCF-7 (ATCC; Cat. No.: HTB-22) using CRISPR-Cas9 gene editing technology; • MCF-7 ER^Y537S: a Luminal A breast cancer cell obtained by constructing MCF-7 (ATCC; Cat. No.: HTB-22) using CRISPR-Cas9 gene editing technology; • MDA-MB-231: (manufacturer: Nanjing CoBioer Biosciences Co., Ltd.), a triple-negative breast cancer cell; • MDA-MB-468: (manufacturer: Nanjing CoBioer Biosciences Co., Ltd.), a triple-negative breast cancer cell.
(§2) Herein, the culture medium of MCF-7, TamR-MCF-7, MCF-7 ER^D538G, and MCF-7 ER^Y537S was EMEM; • the culture medium of MDA-MB-231 and MDA-MB-468 was DMEM.
(§3) 2. Reagents • Culture medium EMEM (Gibco, 1964507) • Culture medium DMEM (Gibco, 12430-054) • Fetal bovine serum (Gibco, 10091148) • Penicillin-streptomycin double antibody (Gibco, S110JV) • DPBS (Gibco, 14190-144) • CellTiter-Glo® assay kit (Promega, G7573) • Trypsin (0.25%) (Gibco, 25200-056) • DMSO (Sigma, D2650)
(§4) 3. Instruments • Biosafety cabinet (AIRTECH, BSC-1300A II) • Automated cell counter (Life Technologies, countess II) • Multifunctional microplate reader (Biotek, H1FM) • Orbital shaker (Hangzhou Allsheng Instruments Co., Ltd., OS-100) • XLFIT 5.3 (Inforstack Shanghai Co., Ltd.)
(§5) For this test method, the following experiments were performed in a biosafety cabinet, with the specific steps as follows: • (1) Cells were inoculated in a 96-well plate. One day later, the previous culture medium was poured off, 5 mL of DPBS was added to wash the cells, and then DPBS was pipetted and discarded. An appropriate amount of trypsin was then added. The plate was digested in a 37° C., 5% CO2 cell incubator for about 2 to 5 minutes and then taken out. Anew corresponding culture medium was added, and pipetted up and down to resuspend the cells evenly. The cells were then counted using an automated cell counter. • (2) Each cell was inoculated in columns 1 to 11 of a 96-well plate (Corning, Cat. No.: 3610) at a density of 1,000 or 2,000 cells per well in 100 μL of culture medium, and 100 μL of the corresponding culture medium without cells was added to the wells in column 12. The plate was then placed in a 37° C., 5% CO2 incubator for 24 hours. • (3) The compound of the present disclosure and the control drug fulvestrant (Selleck; Cat. No.: S1191) were then 4-fold serially diluted to 10 dose points starting at 10 μM. 10 μL of the serially diluted compound was pipetted and added to 100 μL of cells in columns 1 to 10, and 10 μL of the corresponding culture medium containing 0.33 v % DMSO was added to both columns 11 and 12. The plate was incubated in a 37° C., 5% CO2 incubator for 6 days or 72 hours (Note: column 11 was used as a MAX well with cells but without compound; column 12 was used as a MIN well without cells […]). • (4) The cell viability detection reagent in the CellTiter-Glo® assay kit was then added to the 96-well plate at 50 μL per well according to the instructions, and shaken on an orbital shaker in the dark for 5 to 10 minutes. The cell viability was then measured using a multifunctional microplate reader. Finally, the inhibition of cell proliferation by the compound of the present disclosure was plotted by XLFIT software, and the IC50 value (half inhibitory concentration) and the IH % max (maximum inhibition percentage) of the compound of the present disclosure were calculated.

A further test relates to MCF-7. The experiment in a line: CellTiter-Glo cell proliferation inhibition, MCF-7 (Effect Example 2). The note with it: Homo sapiens, MCF7, 144 h, MCF-7 (CTG), 6 days, starting concentration 10 μM; for inhibition at up to 10 µM: read-out: IH % max (maximum inhibition percentage).
Excerpt: as §1, §2, §3, §4, §5

Another test has as its system MCF-7 ER^D538G. Briefly: CellTiter-Glo cell proliferation inhibition, MCF-7 ER^D538G. The note with it: Homo sapiens, MCF7, 144 h, MCF-7 ER^D538G (CTG), 6 days, starting concentration 10 μM; for inhibition at up to 10 µM: read-out: IH % max (maximum inhibition percentage).
Excerpt: as §1, §2, §3, §4, §5

A further test has as its system MCF-7 ER^Y537S. The experiment in a line: CellTiter-Glo cell proliferation inhibition, MCF-7 ER^Y537S. Particulars: Homo sapiens, MCF7, 144 h; MCF-7 ER^Y537S (CTG), 6 days, starting concentration 10 μM; read-out: IH % max (maximum inhibition percentage).
Excerpt: as §1, §2, §3, §4, §5

For another test, the system named is MDA-MB-468. The experiment in a line: CellTiter-Glo cell proliferation inhibition, MDA-MB-468. Particulars: Homo sapiens, 144 h; MDA-MB-468 (CTG), 6 days, starting concentration 10 μM; read-out: IH % max (maximum inhibition percentage).
Excerpt: as §1, §2, §3, §4, §5
Compounds D64 to D69 were tested for MDA-MB-231 (CTG) and MDA-MB-468 (CTG) with an incubation time of 72 hours in the incubator.

With `CCN(CCOCCOCCNc1ccc2c(c1)C(=O)N(C1CCC(=O)NC1=O)C2=O)CCOc1ccc(Oc2c(-c3ccc(S(C)(=O)=O)cc3)ccc3cc(O)ccc23)cc1` (centres unmarked) [Compound D45], the inhibition at up to 10 µM with TamR-MCF-7 came out at 33%; in the test on MCF-7, 35%; with MCF-7 ER^D538G it was 75%; in the test with MCF-7 ER^Y537S, 44%. For the same molecule, in the test on MCF-7 ER^D538G, the 50% inhibitory concentration (IC50) worked out at 198 nM.

For `CCN(CCOCCOCCOCCOc1cccc2c1C(=O)N(C1CCC(=O)NC1=O)C2=O)CCOc1ccc(Oc2c(-c3ccc(S(C)(=O)=O)cc3)ccc3cc(O)ccc23)cc1` (centres unmarked) [Compound D36, 2-(2,6-dioxopiperidin-3-yl)-4-((3-ethyl-1-(4-((6-hydroxy-2-(4-(methylsulfonyl)phenyl)naphthalen-1-yl)oxy)phenoxy)-6,9,12-trioxa-3-azatetradecan-14-yl)oxy)isoindoline-1,3-dione], the results for the inhibition at up to 10 µM with MCF-7 ER^D538G, with MDA-MB-468 and in the test on MCF-7 ER^Y537S were 62%, 37% and 51%, respectively.

As for `CS(=O)(=O)c1ccc(-c2ccc3cc(O)ccc3c2Oc2ccc(OCCN3CCN(c4ccc5c(c4)C(=O)N(C4CCC(=O)NC4=O)C5)CC3)cc2)cc1` (centres unmarked) [Compound D32, 3-(6-(4-(2-(4-((6-hydroxy-2-(4-(methylsulfonyl)phenyl)naphthalen-1-yl)oxy)phenoxy)ethyl)piperazin-1-yl)-1-oxoisoindolin-2-yl)piperidine-2,6-dione], the results for the inhibition at up to 10 µM in the test on MCF-7, with MCF-7 ER^D538G and in the test on MCF-7 ER^Y537S were 39%, 38% and 33%, respectively.

In the case of `C[C@@H]1CN(CCOc2ccc(Oc3c(-c4ccc(S(C)(=O)=O)cc4)ccc4cc(O)ccc34)cc2)[C@@H](C)CN1CCN1CCN(c2ccc3c(c2)C(=O)N(C2CCC(=O)NC2=O)C3)CC1` (stereo partly drawn) [Compound D61, 3-(6-(4-(2-((2R,5S)-4-(2-(4-((6-hydroxy-2-(4-(methylsulfonyl)phenyl)naphthalen-1-yl)oxy)phenoxy)ethyl)-2,5-dimethylpiperazin-1-yl)ethyl)piperazin-1-yl)-1-oxoisoindolin-2-yl)piperidine-2,6-dione], the values for the inhibition at up to 10 µM with TamR-MCF-7, with MCF-7 and in the test on MDA-MB-468 were 40.2%, 45.6% and 32.7%, respectively.

For the molecule `CCN(CCOc1ccc(Oc2c(-c3ccc(S(C)(=O)=O)cc3)ccc3cc(O)ccc23)cc1)CCN1CCN(c2ccc3c(c2)CN(C2CCC(=O)NC2=O)C3=O)CC1` (centres unmarked) [Compound D57, 3-(5-(4-(2-(ethyl(2-(4-((6-hydroxy-2-(4-(methylsulfonyl)phenyl)naphthalen-1-yl)oxy)phenoxy)ethyl)amino)ethyl)piperazin-1-yl)-1-oxoisoindolin-2-yl)piperidine-2,6-dione], the inhibition at up to 10 µM in the test on MCF-7 ER^D538G was determined as 51%; in the test with MCF-7 ER^Y537S, 46%.

Consider `CCN(CCOCCOCCOc1cccc2c1C(=O)N(C1CCC(=O)NC1=O)C2=O)CCOc1ccc(Oc2c(-c3ccc(S(C)(=O)=O)cc3)ccc3cc(O)ccc23)cc1` (centres unmarked) [Compound D41], for which the inhibition at up to 10 µM in the test on MCF-7 ER^D538G amounted to 65%; with MDA-MB-468, 31%; in the test on MCF-7 ER^Y537S it was 50%.

As for `CCN(CCOCCOCCOCCOc1ccc2c(c1)C(=O)N(C1CCC(=O)NC1=O)C2=O)CCOc1ccc(Oc2c(-c3ccc(S(C)(=O)=O)cc3)ccc3cc(O)ccc23)cc1` (centres unmarked) [Compound D48, 2-(2,6-dioxopiperidin-3-yl)-5-((3-ethyl-1-(4-((6-hydroxy-2-(4-(methylsulfonyl)phenyl)naphthalen-1-yl)oxy)phenoxy)-6,9,12-trioxa-3-azatetradecan-14-yl)oxy)isoindoline-1,3-dione], the inhibition at up to 10 µM in the test with MCF-7 amounted to 32%; with MCF-7 ER^D538G, 66%; with MCF-7 ER^Y537S it was 41%.

For the molecule `CCN(CCOCC(=O)N1CCN(c2cccc3c2CN(C2CCC(=O)NC2=O)C3=O)CC1)CCOc1ccc(Oc2c(-c3ccc(S(C)(=O)=O)cc3)ccc3cc(O)ccc23)cc1` (centres unmarked) [Compound D52], the inhibition at up to 10 µM worked out at 39.4% in the test on TamR-MCF-7 and 52.6% in the test with MCF-7.

As to `CS(=O)(=O)c1ccc(-c2ccc3cc(O)ccc3c2Oc2ccc(OCCOCCOCCN3CCN(c4ccc5c(c4)C(=O)N(C4CCC(=O)NC4=O)C5=O)CC3)cc2)cc1` (centres unmarked) [Compound D16, 2-(2,6-dioxopiperidin-3-yl)-5-(4-(2-(2-(2-(4-((6-hydroxy-2-(4-(methylsulfonyl)phenyl)naphthalen-1-yl)oxy)phenoxy)ethoxy)ethoxy)ethyl)piperazin-1-yl)isoindoline-1,3-dione], the inhibition at up to 10 µM stood at 33% with TamR-MCF-7, 51% with MCF-7 and 47% in the test on MCF-7 ER^D538G.

As to `CCN(CCOCCOCCNc1cccc2c1C(=O)N(C1CCC(=O)NC1=O)C2=O)CCOc1ccc(Oc2c(-c3ccc(S(C)(=O)=O)cc3)ccc3cc(O)ccc23)cc1` (centres unmarked) [Compound D42], the inhibition at up to 10 µM in the test with MCF-7 came to 37%; in the test on MCF-7 ER^D538G it was 77%; in the test with MDA-MB-468 it was 39%; with MCF-7 ER^Y537S, 46%. The IC50 in the test on MCF-7 ER^D538G amounted to 283 nM.

Regarding `CS(=O)(=O)c1ccc(-c2ccc3cc(O)ccc3c2Oc2ccc(OCCOCCOCCOCCOc3cccc4c3CN(C3CCC(=O)NC3=O)C4=O)cc2)cc1` (centres unmarked) [Compound D14, 3-(4-(2-(2-(2-(2-(4-((6-hydroxy-2-(4-(methylsulfonyl)phenyl)naphthalen-1-yl)oxy)phenoxy)ethoxy)ethoxy)ethoxy)ethoxy)-1-oxoisoindolin-2-yl)piperidine-2,6-dione], the results for the inhibition at up to 10 µM with MCF-7, with MCF-7 ER^D538G and in the test with MDA-MB-468 were 42%, 40% and 32%, respectively.

Regarding `CCN(CCOCCNc1ccc2c(c1)C(=O)N(C1CCC(=O)NC1=O)C2=O)CCOc1ccc(Oc2c(-c3ccc(S(C)(=O)=O)cc3)ccc3cc(O)ccc23)cc1` (centres unmarked) [Compound D38, […]], the figures for the inhibition at up to 10 µM in the test on MCF-7 ER^D538G and in the test on MCF-7 ER^Y537S were 54% and 47%, respectively.

In the case of `CS(=O)(=O)c1ccc(-c2ccc3cc(O)ccc3c2Oc2ccc(OCCOCCOCCOCCN3CCN(c4ccc5c(c4)CN(C4CCC(=O)NC4=O)C5=O)CC3)cc2)cc1` (centres unmarked) [Compound D27], the results for the inhibition at up to 10 µM with TamR-MCF-7, in the test with MCF-7 and in the test on MCF-7 ER^D538G were 40%, 60% and 69%, respectively. Also, the IC50 in the test with MCF-7 is 222 nM.
